These results are taken from patent publication US20250270190A1, “KIT INHIBITORS” (BLUEPRINT MEDICINES CORPORATION, priority 2022, published 2025).

pIC50: −log10 of the molar value.

Usually pIC50 stands for the negative decadic logarithm of the IC50, by convention in mol/L.

The target of this experiment is T1, c-kit autophosphorylation (Phospho c-Kit Tyr721) in HMC 1.1 (exon 11/13) cells, V654A (Homo sapiens, UniProt P10721, V560G/V654A).
T1 construct: endogenous in cells; host or cells: HMC 1.1 (exon 11/13) cells
T1 sequence (P10721 26-976 V560G/V654A): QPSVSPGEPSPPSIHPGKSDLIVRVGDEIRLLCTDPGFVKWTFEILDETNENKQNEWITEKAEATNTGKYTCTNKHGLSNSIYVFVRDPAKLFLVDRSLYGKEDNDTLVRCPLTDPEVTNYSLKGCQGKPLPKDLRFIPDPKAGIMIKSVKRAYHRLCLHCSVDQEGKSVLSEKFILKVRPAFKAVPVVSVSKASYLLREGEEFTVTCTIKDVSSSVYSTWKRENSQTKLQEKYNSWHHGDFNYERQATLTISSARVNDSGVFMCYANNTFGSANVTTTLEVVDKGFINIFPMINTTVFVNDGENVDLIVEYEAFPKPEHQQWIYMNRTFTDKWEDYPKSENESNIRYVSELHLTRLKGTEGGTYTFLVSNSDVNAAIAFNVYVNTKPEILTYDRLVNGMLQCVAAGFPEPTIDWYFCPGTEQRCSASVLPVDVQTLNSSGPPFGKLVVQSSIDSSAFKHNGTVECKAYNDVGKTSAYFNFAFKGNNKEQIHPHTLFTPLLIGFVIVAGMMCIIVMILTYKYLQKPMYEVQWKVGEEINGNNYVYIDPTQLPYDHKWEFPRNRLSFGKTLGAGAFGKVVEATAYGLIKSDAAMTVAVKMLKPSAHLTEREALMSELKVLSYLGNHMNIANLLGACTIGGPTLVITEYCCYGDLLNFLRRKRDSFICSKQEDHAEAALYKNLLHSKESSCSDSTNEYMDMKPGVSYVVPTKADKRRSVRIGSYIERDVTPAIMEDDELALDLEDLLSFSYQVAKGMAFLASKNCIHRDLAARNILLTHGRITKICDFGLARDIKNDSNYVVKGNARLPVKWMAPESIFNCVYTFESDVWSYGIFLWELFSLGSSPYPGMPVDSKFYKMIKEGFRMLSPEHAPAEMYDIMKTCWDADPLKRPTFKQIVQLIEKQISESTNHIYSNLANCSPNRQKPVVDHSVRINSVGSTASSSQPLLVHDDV
The experiment can be described thus: pKIT Meso Scale Discovery (MSD) assay, inhibition of autophosphorylation of KIT, HMC1.1_V654A. As to conditions: Table 1, cell line not named for Table 1, b1056 names pKIT HMC1.1_V654A, read-out: Code (IC50 for inhibition of autophosphorylation of KIT, pKIT MSD assay). The format is cell-based. An outline of the steps:
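HMC1.1 cells were serum-starved for 4 h in serum-free, iron-free, phenol red-free IMDM, then treated with compound in dose-response for 90 min at 37 °C. Staurosporine and DMSO served as controls. Lysates were analysed by MSD electrochemiluminescence immunoassay for phospho-c-Kit Tyr721, and % inhibition of autophosphorylation was derived.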
In the case of `COc1cc(Nc2cc(N)nc(C(F)F)n2)ncc1-c1cnn(CCNCC(F)(F)F)c1` [Compound 197, 2-(difluoromethyl)-N4-(4-methoxy-5-(1-(2-((2,2,2-trifluoroethyl)amino)ethyl)-1H-pyrazol-4-yl)pyridin-2-yl)pyrimidine-4,6-diamine], the negative logarithm of the IC50 (pIC50) is above 8.00. As to `CC(C)(O)Cn1cc(-c2cnc(Nc3cc(N)nc(C(F)F)n3)cc2OC(F)(F)F)cn1` [Compound 198, 1-(4-(6-((6-amino-2-(difluoromethyl)pyrimidin-4-yl)amino)-4-(trifluoromethoxy)pyridin-3-yl)-1H-pyrazol-1-yl)-2-methylpropan-2-ol], the pIC50 was above 8.00. As to `COc1cc(Nc2cc(N)nc(C(F)F)n2)ncc1-c1cnn(CCN(C)CC(F)(F)F)c1` [Compound 199, 2-(difluoromethyl)-N4-(4-methoxy-5-(1-(2-(methyl(2,2,2-trifluoroethyl)amino)ethyl)-1H-pyrazol-4-yl)pyridin-2-yl)pyrimidine-4,6-diamine], the pIC50 is above 8.00. The same measure for `CNC(C)(C)Cn1cc(-c2cnc(Nc3cc(N)nc(C(F)F)n3)cc2OC(F)(F)F)cn1` [Compound 200, 2-(difluoromethyl)-N4-(5-(1-(2-methyl-2-(methylamino)propyl)-1H-pyrazol-4-yl)-4-(trifluoromethoxy)pyridin-2-yl)pyrimidine-4,6-diamine]: above 8.00; for `CN1CC(n2cc(-c3cnc(Nc4cc(N)nc(C(F)F)n4)cc3OC[C@@H]3CCCO3)cn2)C1` [Compound 201, (S)-2-(difluoromethyl)-N4-(5-(1-(1-methylazetidin-3-yl)-1H-pyrazol-4-yl)-4-((tetrahydrofuran-2-yl)methoxy)pyridin-2-yl)pyrimidine-4,6-diamine]: 7.40 to 8.00. The same measure for `CN1CC(n2cc(-c3cnc(Nc4cc(N)nc(C(F)F)n4)cc3OC[C@H]3CCCO3)cn2)C1` [Compound 202, (R)-2-(difluoromethyl)-N4-(5-(1-(1-methylazetidin-3-yl)-1H-pyrazol-4-yl)-4-((tetrahydrofuran-2-yl)methoxy)pyridin-2-yl)pyrimidine-4,6-diamine]: 7.40 to 8.00; for `CN(CCn1cc(-c2cnc(Nc3cc(N)nc(C(F)F)n3)cc2OC2CC2)cn1)CC(F)(F)F` [Compound 203, N4-(4-cyclopropoxy-5-(1-(2-(methyl(2,2,2-trifluoroethyl)amino)ethyl)-1H-pyrazol-4-yl)pyridin-2-yl)-2-(difluoromethyl)pyrimidine-4,6-diamine]: above 8.00.
